Results: US8921348B2, “Optimizing mifepristone levels in plasma serum of patients suffering from mental disorders treatable with glucocorticoid receptor antagonists” (Corcept Therapeutics, priority 2007, dated 2014)

Columns and labels:
[1] = Mifepristone blood serum/plasma level after the same dose in different patients; format: in vivo, human; conditions: same dose of mifepristone
Procedure: In some embodiments, the assay can be performed as follows. Blood is collected from a patient in a vacutainer containing sodium heparin. The blood is centrifuged and the resulting plasma frozen at an appropriate temperature until assay. In some embodiments, the temperature is about −70° C. In other embodiments, other blood components can be collected and stored. Prior to analysis, the plasma is thawed and a fraction of the plasma is mixed with an internal standard in a solvent such as acetonitrile, to obtain a fixed concentration of the standard. In some embodiments, the internal standard can be mifepristone-d4. The concentration of the internal standard is selected in order to be greater than the expected concentration of mifepristone in the plasma. […]
The sample can then be analyzed by reverse-phase high pressure liquid chromatography (HPLC). […]
The reverse-phase HPLC column can be a phenyl column maintained at 50° C. […] Following elution, the mobile phase can be nebulized using heated nitrogen in a Z-spray source/interface and the ionized compounds detected using a tandem quadrupole mass spectrometer. Mifepristone (molecular weight of 430 g/mol) can be detected at m/z 372.30. The internal standard mifepristone-d4 can be detected at m/z 376.30. The ratio of the mifepristone peak height to the peak height for the internal standard can then be calculated. […]

[2] = species and route not given; cited from earlier work
[3] = tested on: patients with major depressive disorder with psychotic features (PMD); test: Phase III trials of CORLUX plus antidepressant vs. placebo: responders on BPRS Positive Symptom Subscale; format: in vivo, human
Description: This example provides a randomized, double-blind, placebo-controlled, parallel group study of the safety and efficacy of three dose levels of CORLUXTM (Mifepristone) plus an antidepressant vs. placebo plus an antidepressant in the treatment of psychotic symptoms in patients with major depressive disorder with psychotic features (PMD). The study was a Phase III trial performed using several investigators at several different sites. […] Patients eligible for randomization were male or nonpregnant female outpatients, and inpatients, if clinically required, with a diagnosis of Major Depressive Disorder with Psychotic Features (DSM-IV 296.24 or 296.34), and a BPRS Positive Symptom subscale score of at least 12, a BPRS total score of at least 38, and a HAMD-24 score of at least 20. CORLUX was used as the test drug at 300 (1×300 mg tablet), 600 (2×300 mg tablet), and 1200 mg (4×300 mg tablet) once a day by mouth for the initial 7 days. […] The reference drug was a placebo (1, 2, or 4 tablets matching CORLUX 300 mg tablets) once a day by mouth for the initial 7 days. […] An antidepressant selected from a prescribed list was started simultaneously with the study drug, and continued to the end of the trial. BPRS and HAM-D assessments were performed at Screen and on Days 0, 7, 14, 28, 42, and 56, and at early termination when it occurred. Safety visits occurred at Days 21 and 35. The patients who are seen as outpatients made daily visits to the clinic setting to receive study medications for the first 7 days. If clinically necessary, a patient was treated as an inpatient. In addition to the selected antidepressant, continuing benzodiazepines was allowed up to specified dose levels, but antipsychotics, mood stabilizers and additional antidepressants were not allowed during the entire study. If the patient was at imminent risk to him/herself and/or others and therefore could not be adequately treated within the study (e.g., required ECT, new or re-hospitalization for PMD, antipsychotics or mood stabilizers, or a second antidepressant), the patient underwent an early termination visit on the day that rescue therapy was started and completed final efficacy evaluations. If early termination occurred prior to day 35, the patient returned for a safety follow up visit at day 35. […] The secondary endpoints were: (1) the proportion of responders at days 7 and 28; and (2) the mean change from baseline to day 56 in the HAM-D-24 total score. […] This example provides an international, double-blind, placebo-controlled study of the efficacy and safety of CORLUXTM (Mifepristone) vs. placebo in the treatment of psychotic symptoms in patients with Psychotic Major Depression (PMD). The study was a Phase III trial performed using several investigators at several different international sites. […] The number of patients was 220 evaluable subjects. […] CORLUX was administered in a 600 mg dose once a day by mouth for the initial 7 days (administered as two 300 mg tablets). Reference drug, dose, dosage regimen, route of administration: Matching placebo was administered once a day by mouth for the initial 7 days. […] After the 7-day dosing period, patients were evaluated at Days 14, 21, 28, 35, 42 and 56. An antidepressant was administered simultaneously with study drug, and continued to the end of the trial (Day 56). BPRS and HAMD-24 assessments were performed at Screen and on Days 0, 7, 14, 28, 42 and 56, or at early termination. A safety visit occurred on Days 21 and 35, and at study termination on Day 56. Subjects treated on an outpatient basis made daily visits to the clinic to receive study medication for the first 7 days. Subjects were treated on an inpatient basis for as long as deemed clinically necessary by the investigator. In addition to the selected antidepressant, concomitant benzodiazepine treatment was allowed up to specified dose levels. Antipsychotics, mood stabilizers and a second antidepressant were prohibited during the entire study. […]

## CC#C[C@]1(O)CC[C@H]2[C@@H]3CCC4=CC(=O)CCC4=C3[C@@H](c3ccc(N(C)C)cc3)C[C@@]21C [Corlux, 17-beta-hydroxy-11-beta-(4-dimethyl-aminophenyl)-17-alpha-(1-propynyl)-estra-4,9-dien-3-one]
[1]
  difference in blood serum levels from one patient to another: ≤ 800% and up to 800%
[2]
  LD50 dose: about 1000 mg/kg
[3]; 1200 mg group (OC), all patients receiving the 1200 mg dose, FIG. 4
  proportion of patients with at least a 50% reduction from baseline in BPRS PSS scores at days 7 and 56: 47%
[3]; 1200 mg group (OC), plasma levels <1357 ng/mL, FIG. 5
  proportion of patients with at least a 50% reduction from baseline in BPRS PSS scores at days 7 and 56: 31%
[3]; 1200 mg group (OC), plasma levels <1661 ng/mL, FIG. 6
  proportion of patients with at least a 50% reduction from baseline in BPRS PSS scores at days 7 and 56: 39%
[3]; 1200 mg group (OC), plasma levels >1357 ng/mL, FIG. 5
  proportion of patients with at least a 50% reduction from baseline in BPRS PSS scores at days 7 and 56: 54%
[3]; 1200 mg group (OC), plasma levels >1661 ng/mL, FIG. 6
  proportion of patients with at least a 50% reduction from baseline in BPRS PSS scores at days 7 and 56: 58%
[3]; all studies (OC), all patients receiving Corlux, FIG. 1
  proportion of patients with at least a 50% reduction from baseline in BPRS PSS scores at days 7 and 56: 35%
[3]; all studies (OC), patients with plasma levels <1357 ng/mL, FIG. 2
  proportion of patients with at least a 50% reduction from baseline in BPRS PSS scores at days 7 and 56: 27%
[3]; all studies (OC), patients with plasma levels <1661 ng/mL, FIG. 3
  proportion of patients with at least a 50% reduction from baseline in BPRS PSS scores at days 7 and 56: 29%
[3]; all studies (OC), patients with plasma levels >1357 ng/mL, FIG. 2
  proportion of patients with at least a 50% reduction from baseline in BPRS PSS scores at days 7 and 56: 40%
[3]; all studies (OC), patients with plasma levels >1661 ng/mL, FIG. 3
  proportion of patients with at least a 50% reduction from baseline in BPRS PSS scores at days 7 and 56: 44%
